Experimental data reported in paper PMC6600263, “Neuroprotective Effects of Red Ginseng Saponins in Scopolamine-Treated Rats and Activity Screening Based on Pharmacokinetics” (Molecules, 2019).
Read-outs that look alike come from different tables or passages of the source.

How the values were obtained:
[1] = pharmacokinetics of 16 ginsenosides in rat plasma after oral administration of RGS; type: in vivo
Protocol: The SD rats were randomly allocated into two groups, i.e., normal group and SA-treated group.
Blood samples were collected from the postocular vein at 0.083, 0.25, 0.5, 1, 2, 3, 4, 6, 8, 12 and 24 h after SA injection. Blood sample immediately was centrifuged at 18,000 rpm for 10 min. Plasma was withdrawn (0.15 mL) and diluted with 0.3 mL of acetonitrile and 20 µL of the IS (6 µg/mL). After 30 min, the mixture was clarified by centrifugation at 18,000 rpm for 10 min at 4 °C. The supernatant was dried under a stream of N2, and the residue was dissolved in 0.1 mL of methanol and stored at −20 °C for further analysis.
The UPLC-MS/MS system (Waters Xeve TQ, Waters, Cork, Ireland) with a column C18 (ACQUITY, 1.7 μm, 2.1 × 50 mm, Waters, Cork, Ireland) were adopted at 35 °C. Water (A) and acetonitrile (B) were used as mobile phases at a flow rate of 0.4 mL/min. The treatment of elution was performed according to following pattern: 10% B for 0–5.0 min; 10→15% B for 5.0–8.0 min; 15→25% B for 8.0–12.0 min; 25→40% for 12.0–20.0 min; 40→50% B for 20.0–25.0 min; 50→65% B for 25.0–30.0 min. With regard to mass detection, the negative mode of electrospray ionization source was adopted. The optimized parameters of multiple reactions monitoring (MRM) system including collision energy, Q1 Pre Bias, Q3 Pre Bias, collision energy and MRM transition of the 16 ginsenosides are shown in Table 1.
Based on a non-compartmental method, WinNonlin software (Phoenix, version 6.1) was employed to calculate the pharmacokinetic parameters. The statistical difference between groups was analyzed by One-Way ANOVA analysis using SPSS Version 17.0. (SPSS Inc., Chicago, IL, USA). The difference between groups was regarded significant when p < 0.05. We first normalized the pharmacokinetic data and then visualized them based on principal component analysis (PCA).

[2] = test system: scopolamine-induced learning ability impairment; design: method as in PMID 24503167; settings: rats; cited from earlier work
[3] = test system: recognition deficits induced by cyproheptadine; design: method as in PMID 23717153; settings: rats; cited from earlier work
[4] = SD, rat, in vivo, po, 100 mg/kg

For `CC(C)=CCCC(C)(OC1OC(CO)C(O)C(O)C1O)C1CCC2(C)C1C(O)CC1C3(C)CCC(O)C(C)(C)C3C(OC3OC(CO)C(O)C(O)C3O)CC12C` (stereo not shown) [Rg1], which Cmax ([1]; SD, rat, plasma, po, 100 mg/kg, model (scopolamine 1 mg/kg i.p.-treated) rats, oral RGS single dose 100 mg/kg, plasma, mean ± S.D., n = 5, read-out: C Max) is on record?
The Cmax was 32.2 ± 2.1 ng/g.

And the MRT ([1]; SD, rat, plasma, po, 100 mg/kg, model (scopolamine 1 mg/kg i.p.-treated) rats, oral RGS single dose 100 mg/kg, plasma, mean ± S.D., n = 5, read-out: MRT)?
The MRT was 16.5 ± 3.2 h.

And the half-life ([1]; SD, rat, plasma, po, 100 mg/kg, model (scopolamine 1 mg/kg i.p.-treated) rats, oral RGS single dose 100 mg/kg, plasma, mean ± S.D., n = 5, read-out: T1/2 (converted))?
The half-life was 10.2 ± 1.2 h.

And the Tmax ([1]; SD, rat, plasma, po, 100 mg/kg, model (scopolamine 1 mg/kg i.p.-treated) rats, oral RGS single dose 100 mg/kg, plasma, mean ± S.D., n = 5, read-out: T Max)?
Its Tmax is 4 ± 0.9 h.

And the Cmax ([1]; SD, rat, plasma, po, 100 mg/kg, normal rats, oral RGS single dose 100 mg/kg, plasma, mean ± S.D., n = 5, read-out: C Max)?
The Cmax was 20.5 ± 2.5 ng/g.

What about the MRT ([1]; SD, rat, plasma, po, 100 mg/kg, normal rats, oral RGS single dose 100 mg/kg, plasma, mean ± S.D., n = 5, read-out: MRT) of the same molecule?
The MRT was 15.6 ± 2.1 h.

What about the half-life ([1]; SD, rat, plasma, po, 100 mg/kg, normal rats, oral RGS single dose 100 mg/kg, plasma, mean ± S.D., n = 5, read-out: T1/2 (converted)) of the same molecule?
Its half-life is 9.6 ± 1.5 h.

And the Tmax ([1]; SD, rat, plasma, po, 100 mg/kg, normal rats, oral RGS single dose 100 mg/kg, plasma, mean ± S.D., n = 5, read-out: T Max)?
The Tmax was 4 ± 1.2 h.

And the “AUC 0-t” value ([1]; model (scopolamine 1 mg/kg i.p.-treated) rats, oral RGS single dose 100 mg/kg, plasma, mean ± S.D., n = 5)?
Its value is 664.5 ± 15.2 ng·h/g.

What about the “AUC 0-t” value ([1]; normal rats, oral RGS single dose 100 mg/kg, plasma, mean ± S.D., n = 5) of the same molecule?
The value was 568.9 ± 10.3 ng·h/g.

What about the “effect on scopolamine-induced learning ability impairment” value [2] of the same molecule?
Its value is “improves”.

With `CC(C)=CCC[C@](C)(O)[C@H]1CC[C@]2(C)[C@@H]1[C@H](O)C[C@@H]1[C@@]3(C)CC[C@H](O)C(C)(C)[C@@H]3[C@@H](O[C@@H]3O[C@H](CO)[C@@H](O)[C@H](O)[C@H]3O[C@@H]3O[C@@H](C)[C@H](O)[C@@H](O)[C@H]3O)C[C@]12C` [Rg2, Ginsenoside Rg2] as the molecule, how does the “C Max” value [1, 4] read?
Its value is 26.3 ± 4.8 ng/g.

And the MRT [1, 4]?
The MRT was 26.5 ± 3.6 h.

What about the T1/2 [1, 4] of the same molecule?
The T1/2 was 18.9 ± 1.6 h.

What about the Cmax ([1]; SD, rat, in vivo, po, 100 mg/kg, C Max) of the same molecule?
The Cmax was 15.3 ± 5.6 ng/g.

And the MRT ([1]; SD, rat, in vivo, po, 100 mg/kg, MRT)?
Its MRT is 22.3 ± 1.4 h.

What about the half-life ([1]; SD, rat, in vivo, po, 100 mg/kg, T1/2) of the same molecule?
The half-life was 19.8 ± 2.5 h.

What about the Tmax ([1]; SD, rat, in vivo, po, 100 mg/kg, T Max) of the same molecule?
Its Tmax is 1.5 ± 0.8 h.

What about the “effect on recognition deficits induced by cyproheptadine” value [3] of the same molecule?
Its value is “improves”.
